# Data reported in patent US7150886B2, “Composition for treating diseased liver” (Industrial Technology Research Institute, priority 2002, dated 2006).
# Tests used:
# [1] = system: rats with d-galactosamine-induced acute hepatitis; test: D-galactosamine-induced acute hepatitis in rats, serum GOT and GPT; assay type: in vivo; settings: rat serum 24 h after d-galactosamine i.p. (500 mg/kg); test substance oral × 3, dose per group as in Table 3; N = 5
# Description: The liver enzymes were dramatically released to the blood stream when the hepatocyte was damaged, and thus the serum GOT and GPT values increased. […] In other words, the restoration effects of the extracts on the damaged liver were evaluated through comparing the GOT and GPT variations before and after a treatment of the extracts.
# Five male rats were divided in each group, each rat with body weight about 200±20 g. […] The reference group was orally given guanine (300 mg/kg). Half an hour later, each group was i.p. with d-galactosamine (500 mg/kg), except the control group. Four and eight hours after first injection, test substances were administered orally again at the same dose. After 24 hours, the animals were sacrificed, and the blood was collected from the carotid arteries. The serum was separated and incubated at room temperature for 10 minutes, and then centrifuged (Backman centrifuge, GS-6R, 3000 rpm) for another 10 minutes. The activities of rat serum GOT (Glutamyl Oxaloacetic Transaminase) and GPT (Glutamyl Pyrubic Transaminase) were measured.
# B type hepatitis = settings: treating B type hepatitis; cited from earlier work
Compound,GOT [1] [U/L],GPT [1] [U/L],positive response (B type hepatitis) [%]
"Nc1nc2nc[nH]c2c(=O)[nH]1 [Guanine, guanine]",1024.8 ± 91.1,602.4 ± 61.7,–
interferon,–,–,20
